Experimental data taken from patent US4992530A, “Calcitonin-gene-related peptide derivatives” (Toyo Jozo Kabushiki Kaisha, priority 1987, dated 1991).
Ends that are not written are not given here. Peptide text beside a SMILES is read from it.

Columns and labels:
[1] = Serum calcium reducing activity in rats (atomic absorption spectrophotometry); assay type: in vivo; details: 80 μg/kg intravenously, Wistar rats; for prolongation of serum calcium reducing effect compared with h-CGRP / serum calcium reducing activity compared with h-CGRP: comparator h-CGRP; for serum calcium reducing activity compared with h-CGRP: same dose; for reduction of serum calcium concentration as compared with the control group: tail vein, vs dissolving medium group, FIG. 1
Procedure: (§1) Serum calcium and serum phosphate reducing activities: Assay method:
(§2) The peptide (1) of the present invention and known h-CGRP (each 80 μg) dissolved in citrate buffer, pH 6.5, containing 0.1% bovine serum albumin (hereinafter designated dissolving medium) (1 ml) were administered intravenously into the tail vein of Wistar rats, body weight 80-90 g, 5-6 rats in one group, at 80 μg/kg. After 30 and 60 mins. of administration, blood samples were collected from the abdominal descending aorta. The serum calcium concentration was measured by atomic adsorption spectrophotometry. Serum phosphate was measured by a method according to Goldenberg et al. [Clin. Chem., 12: 872-882 (1966)].

[2] = Serum phosphate reducing activity in rats (method of Goldenberg et al.); assay type: in vivo; details: 80 μg/kg intravenously, Wistar rats; for prolongation of serum phosphate reducing effect compared with h-CGRP / serum phosphate reducing activity compared with h-CGRP: comparator h-CGRP; for serum phosphate reducing activity compared with h-CGRP: same dose; for reduction of serum phosphate concentration as compared with the control group: tail vein, vs dissolving medium group, FIG. 2
Procedure: as §1, §2

| Molecule | duration of serum calcium reducing activity [1] | prolongation of serum calcium reducing effect compared with h-CGRP [1] | serum calcium reducing activity compared with h-CGRP [1] | reduction of serum calcium concentration as compared with the control group [1] | duration of serum phosphate reducing activity [2] | prolongation of serum phosphate reducing effect compared with h-CGRP [2] | serum phosphate reducing activity compared with h-CGRP [2] | reduction of serum phosphate concentration as compared with the control group [2] |
| --- | --- | --- | --- | --- | --- | --- | --- | --- |
| CC(C)C[C@H](NC(=O)[C@H](CCCNC(=N)N)NC(=O)[C@H](Cc1c[nH]cn1)NC(=O)[C@@H](NC(=O)[C@@H](NC(=O)[C@@H]1CSSC[C@H](NC(=O)[C@H](C)N)C(=O)N[C@@H](CC(N)=O)C(=O)N[C@@H]([C@@H](C)O)C(=O)N[C@@H](C)C(=O)N[C@@H]([C@@H](C)O)C(=O)N1)C(C)C)[C@@H](C)O)C(=O)N[C@@H](C)C(=O)NCC(=O)N[C@@H](Cc1ccccc1)C(=O)N[C@@H](CC(C)C)C(=O)N[C@@H](CO)C(=O)N[C@@H](CCCNC(=N)N)C(=O)N[C@@H](CO)C(=O)NCC(=O)NCC(=O)N[C@H](C(=O)NCC(=O)N[C@@H](CCCCN)C(=O)N[C@@H](CC(N)=O)C(=O)N[C@@H](CC(N)=O)C(=O)N[C@@H](Cc1ccccc1)C(=O)N[C@H](C(=O)N1CCC[C@H]1C(=O)N[C@H](C(=O)N[C@@H](CC(N)=O)C(=O)N[C@H](C(=O)NCC(=O)N[C@@H](CO)C(=O)N[C@@H](CCCCN)C(=O)N[C@@H](C)C(=O)N[C@@H](Cc1ccccc1)C(N)=O)C(C)C)[C@@H](C)O)C(C)C)C(C)C [[Asn^3, Phe^15,Gly^23] h-CGRP(1-37), [Asn^3,Phe^15,Gly^23] h-CGRP(1-37)] (HELM PEPTIDE1{A.C.N.T.A.T.C.V.T.H.R.L.A.G.F.L.S.R.S.G.G.V.G.K.N.N.F.V.P.T.N.V.G.S.K.A.F.[am]}$PEPTIDE1,PEPTIDE1,2:R3-7:R3$$$V2.0) | more than 2 hours | prolonged significantly | stronger than those of h-CGRP | 20-30% | more than 2 hours | prolonged significantly | stronger than those of h-CGRP | 20-30% |
| desalanyl-deamino-[Asp^14 ] h-CGRP(2-37) [desalanyl-deamino-[Asp14] h-CGRP(2-37)] | more than 2 hours | prolonged significantly | stronger than those of h-CGRP | 20-30% | more than 2 hours | prolonged significantly | stronger than those of h-CGRP | 20-30% |
| [Asp^14 ] h-CGRP(1-37) (ACDTATCVTHRLADLLSRSGGVVKNNFVPTNVGSKAF; ends and bridges not checked; cysteine pairing not given here; UniProt P06881 83-119, looked up, variant G14D) [R = H--Ala--NH--, A = Asp, B = Asp, C = Leu, D = Val] | more than 2 hours | prolonged significantly | stronger than those of h-CGRP | 20-30% | more than 2 hours | prolonged significantly | stronger than those of h-CGRP | 20-30% |
| CC(C)C[C@H](NC(=O)[C@H](CCCNC(=N)N)NC(=O)[C@H](Cc1c[nH]cn1)NC(=O)[C@@H](NC(=O)[C@@H](NC(=O)[C@@H]1CSSC[C@H](NC(=O)[C@H](C)N)C(=O)N[C@@H](CC(N)=O)C(=O)N[C@@H]([C@@H](C)O)C(=O)N[C@@H](C)C(=O)N[C@@H]([C@@H](C)O)C(=O)N1)C(C)C)[C@@H](C)O)C(=O)N[C@@H](C)C(=O)N[C@@H](CC(=O)O)C(=O)N[C@@H](CC(C)C)C(=O)N[C@@H](CC(C)C)C(=O)N[C@@H](CO)C(=O)N[C@@H](CCCNC(=N)N)C(=O)N[C@@H](CO)C(=O)NCC(=O)NCC(=O)N[C@H](C(=O)NCC(=O)N[C@@H](CCCCN)C(=O)N[C@@H](CC(N)=O)C(=O)N[C@@H](CC(N)=O)C(=O)N[C@@H](Cc1ccccc1)C(=O)N[C@H](C(=O)N1CCC[C@H]1C(=O)N[C@H](C(=O)N[C@@H](CC(N)=O)C(=O)N[C@H](C(=O)NCC(=O)N[C@@H](CO)C(=O)N[C@@H](CCCCN)C(=O)N[C@@H](C)C(=O)N[C@@H](Cc1ccccc1)C(N)=O)C(C)C)[C@@H](C)O)C(C)C)C(C)C [[Asn^3,Asp^14,Gly^23] h-CGRP(1-37)] (HELM PEPTIDE1{A.C.N.T.A.T.C.V.T.H.R.L.A.D.L.L.S.R.S.G.G.V.G.K.N.N.F.V.P.T.N.V.G.S.K.A.F.[am]}$PEPTIDE1,PEPTIDE1,2:R3-7:R3$$$V2.0) | more than 2 hours | prolonged significantly | stronger than those of h-CGRP | 20-30% | more than 2 hours | prolonged significantly | stronger than those of h-CGRP | 20-30% |
| CC(C)C[C@H](NC(=O)[C@H](CCCNC(=N)N)NC(=O)[C@H](Cc1c[nH]cn1)NC(=O)[C@@H](NC(=O)[C@@H](NC(=O)[C@@H]1CSSC[C@H](NC(=O)[C@H](C)N)C(=O)N[C@@H](CC(N)=O)C(=O)N[C@@H]([C@@H](C)O)C(=O)N[C@@H](C)C(=O)N[C@@H]([C@@H](C)O)C(=O)N1)C(C)C)[C@@H](C)O)C(=O)N[C@@H](C)C(=O)N[C@@H](CC(=O)O)C(=O)N[C@@H](Cc1ccccc1)C(=O)N[C@@H](CC(C)C)C(=O)N[C@@H](CO)C(=O)N[C@@H](CCCNC(=N)N)C(=O)N[C@@H](CO)C(=O)NCC(=O)NCC(=O)N[C@H](C(=O)N[C@H](C(=O)N[C@@H](CCCCN)C(=O)N[C@@H](CC(N)=O)C(=O)N[C@@H](CC(N)=O)C(=O)N[C@@H](Cc1ccccc1)C(=O)N[C@H](C(=O)N1CCC[C@H]1C(=O)N[C@H](C(=O)N[C@@H](CC(N)=O)C(=O)N[C@H](C(=O)NCC(=O)N[C@@H](CO)C(=O)N[C@@H](CCCCN)C(=O)N[C@@H](C)C(=O)N[C@@H](Cc1ccccc1)C(N)=O)C(C)C)[C@@H](C)O)C(C)C)C(C)C)C(C)C [Asn^3,Asp^14,Phe^15] h-CGRP(1-37), [Asn^3,Asp^14,Phe^15] h-CGRP(1-37)] (HELM PEPTIDE1{A.C.N.T.A.T.C.V.T.H.R.L.A.D.F.L.S.R.S.G.G.V.V.K.N.N.F.V.P.T.N.V.G.S.K.A.F.[am]}$PEPTIDE1,PEPTIDE1,2:R3-7:R3$$$V2.0) | more than 2 hours | prolonged significantly | stronger than those of h-CGRP | 20-30% | more than 2 hours | prolonged significantly | stronger than those of h-CGRP | 20-30% |
